Assay results taken from paper PMC10709440, “High-throughput ligand profile characterization in novel cell lines expressing seven heterologous insect olfactory receptors for the detection of volatile plant biomarkers” (Scientific Reports, 2023).

Columns and labels:
Assay in all cases: cell-based
Design in all cases: GCaMP6 calcium fluorescence in stable HEK293 OR+ORCO lines; peak dF normalised to 50 uM VUAA1 (=1)
[1] = target: T1, Drosophila OR10a (Drosophila melanogaster, UniProt Q9VYZ1); conditions: relative to 50 uM VUAA1 response, below 0.05 set to 0; for activity at 1 µM / activity at 10 µM / activity at 100 µM: HEK293, read-out: % activation; for % activation: agonist
T1 construct: expressed in transfected cells
T1 sequence (Q9VYZ1 1-406): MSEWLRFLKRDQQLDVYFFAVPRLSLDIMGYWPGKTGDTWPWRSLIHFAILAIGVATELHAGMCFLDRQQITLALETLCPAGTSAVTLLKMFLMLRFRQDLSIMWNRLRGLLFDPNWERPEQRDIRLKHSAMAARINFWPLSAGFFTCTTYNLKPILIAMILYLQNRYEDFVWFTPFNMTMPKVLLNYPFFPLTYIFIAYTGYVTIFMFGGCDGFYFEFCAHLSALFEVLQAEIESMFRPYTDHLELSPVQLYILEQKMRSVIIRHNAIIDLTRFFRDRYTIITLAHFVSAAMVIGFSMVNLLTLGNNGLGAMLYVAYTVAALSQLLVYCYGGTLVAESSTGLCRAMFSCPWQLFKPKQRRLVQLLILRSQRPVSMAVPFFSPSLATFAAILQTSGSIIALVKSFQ
T1 sequence (Q9VNB5 1-486 partner): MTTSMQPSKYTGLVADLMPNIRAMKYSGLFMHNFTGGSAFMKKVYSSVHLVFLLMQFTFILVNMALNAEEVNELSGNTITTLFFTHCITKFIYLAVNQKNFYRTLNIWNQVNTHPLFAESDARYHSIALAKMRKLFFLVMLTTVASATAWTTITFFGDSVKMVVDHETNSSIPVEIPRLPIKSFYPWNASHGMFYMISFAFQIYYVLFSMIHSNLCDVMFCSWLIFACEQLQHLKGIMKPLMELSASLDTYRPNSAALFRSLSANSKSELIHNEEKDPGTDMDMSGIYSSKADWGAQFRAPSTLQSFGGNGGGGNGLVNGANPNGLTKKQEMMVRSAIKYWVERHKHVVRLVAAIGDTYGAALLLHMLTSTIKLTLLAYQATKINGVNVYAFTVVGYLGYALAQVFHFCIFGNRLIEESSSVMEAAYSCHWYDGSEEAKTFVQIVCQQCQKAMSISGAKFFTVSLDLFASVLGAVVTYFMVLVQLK
Method: (§1) Twelve thousand to 18,000 cells were plated into each well of a black wall, transparent bottom 384-well microplate (Greiner) 48 h or 72 h before the measurements and were simultaneously treated with 1 μg/mL doxycycline. […] The plate has 24 columns, thus we could record responses in up to eight different cell lines in each plate. On the day of the experiment, the growth medium was replaced with 20 µL assay buffer/well (140 mM NaCl, 5 mM KCl, 2 mM CaCl2, 1 mM MgCl2, 5 mM HEPES-Na, 20 mM glucose, pH 7.3, 340 mOsm). […] Baseline fluorescence (F0) was recorded for 5 s, after which 7 µL VOC buffer (140 mM NaCl, 5 mM KCl, 2 mM CaCl2, 1 mM MgCl2, 5 mM HEPES-Na, 31 mM glucose, 0.1% DMSO, pH 7.3, 340 mOsm) was injected into each well in one row and the fluorescence response was recorded for an additional 30 s, at a rate of one read/sec. VOC solutions (VOC buffer with 4× concentration of the final measured VOC concentration, 9 µL/well was injected) were measured on the same wells in a second round with the same protocol. Each individual concentration of a specific VOC sample was recorded in three wells for the same cell line on the same microplate. The raw data were exported in xls file format, F0 and FMAX values, and the fluorescence intensity changes (∆F) were calculated in Excel (Microsoft) (Supplementary file Data summary.xlsx) using the following equation: ΔF=FMAX-F0/F0 (see also Fig. 1C). On each plate, we recorded the response of each cell line to 50 µM VUAA1. The average of these ∆F values of each cell line were used to calculate the VUAA1-normalized values for the rest of the plate, by dividing VOC response ∆F values by the average VUAA1 response ∆F value of the corresponding OR cell line. Each VOC-OR combination was measured three times as tec The recorded FMAX, F0, ∆F, VUAA1-normalized ∆F values, as well as the OR name, the name of the tested sample, and the final concentration for each well were copied into supplementary file Data summary.xlsx, that was used to summarize all the plates recorded. Here, the averages of the measurements were calculated for each receptor-VOC-concentration combination. […] Each VOC was measured at 1, 10, and 100 µM final concentration on each receptor. VUAA1-normalized response was calculated as described in methods.

[2] = target: T2, Drosophila OR49b (Drosophila melanogaster, UniProt Q9V6H2); conditions: HEK293; relative to 50 uM VUAA1 response; below 0.05 set to 0; read-out: % activation
T2 construct: expressed in transfected cells
T2 sequence (Q9V6H2 1-375): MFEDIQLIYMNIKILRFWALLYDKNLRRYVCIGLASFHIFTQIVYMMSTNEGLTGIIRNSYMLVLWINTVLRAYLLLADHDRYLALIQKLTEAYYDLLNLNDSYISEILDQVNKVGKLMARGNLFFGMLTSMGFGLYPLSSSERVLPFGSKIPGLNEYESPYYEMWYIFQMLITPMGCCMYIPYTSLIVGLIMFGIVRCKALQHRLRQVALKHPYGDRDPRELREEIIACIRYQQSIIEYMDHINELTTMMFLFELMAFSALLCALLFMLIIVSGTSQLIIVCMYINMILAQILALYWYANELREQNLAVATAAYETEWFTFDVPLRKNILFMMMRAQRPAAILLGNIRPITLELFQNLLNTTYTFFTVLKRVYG
T2 sequence (Q9VNB5 1-486 partner): T1 sequence (Q9VNB5 1-486 partner)
Method: as §1

[3] = target: T3, Drosophila OR98a (Drosophila melanogaster, UniProt Q9VAZ3); conditions: HEK293; relative to 50 uM VUAA1 response; below 0.05 set to 0; read-out: % activation
T3 construct: expressed in transfected cells
T3 sequence (Q9VAZ3 1-397): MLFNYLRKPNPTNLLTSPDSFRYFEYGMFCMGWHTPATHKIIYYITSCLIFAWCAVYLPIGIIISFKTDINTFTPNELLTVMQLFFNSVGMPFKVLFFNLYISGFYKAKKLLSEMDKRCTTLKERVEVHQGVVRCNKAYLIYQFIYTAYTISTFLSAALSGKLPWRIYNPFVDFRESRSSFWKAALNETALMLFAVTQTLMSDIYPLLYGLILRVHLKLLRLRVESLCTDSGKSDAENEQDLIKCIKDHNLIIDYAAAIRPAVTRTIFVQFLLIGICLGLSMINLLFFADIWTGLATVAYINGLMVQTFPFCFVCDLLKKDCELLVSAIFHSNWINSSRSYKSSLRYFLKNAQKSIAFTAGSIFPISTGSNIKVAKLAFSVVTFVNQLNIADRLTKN
T3 sequence (Q9VNB5 1-486 partner): T1 sequence (Q9VNB5 1-486 partner)
Method: as §1

Row | Compound | activity at 1 µM [1] [%] | activity at 10 µM [1] [%] | activity at 100 µM [1] [%] | activity at 1 µM [2] [%] | activity at 10 µM [2] [%] | activity at 100 µM [2] [%] | activity at 1 µM [3] [%] | activity at 10 µM [3] [%] | activity at 100 µM [3] [%] | % activation ([1]; 10 µM, 10 / OR10a) [%] | % activation ([1]; 100 µM, 100 / OR10a) [%]
1 | C=C(C)C1CCC2(C)OC2C1 (single isomer, unassigned; (+)) [(+)-limonene oxide] | 0 | 0 | 0 | 0 | 0 | 0 | 0 | 0 | 0 |  | 
2 | C=C1CC[C@@]23C[C@@H]1C(C)(C)[C@@H]2CC[C@H]3C [(+)-beta-cedrene] | 0 | 0 | 0 | 0 | 0 | 0 | 8.55 | 5.99 | 6.08 |  | 
3 | C=C1[C@H]2CC[C@@H]3[C@H]2C(C)(C)CCC[C@]13C [(+)-longifolene] | 8.31 | 5.37 | 0 | 7.75 | 0 | 0 | 0 | 12.6 | 0 |  | 
4 | C=C(C)[C@H]1CC=C(C)CC1 [(R)-(+)-limonene] | 0 |  |  | 0 | 0 | 0 | 0 | 0 | 0 | 0.1196 | 
5 | CC1=CCC[C@@]2(C)[C@@H]3CC[C@]12CC3(C)C [(−)-α-neoclovene] |  | 13.1 | 12.4 |  |  |  | 14.8 |  |  |  | 
6 | C=C(C)[C@H]1CC=C(C)CC1 [limonene] |  |  |  |  |  |  |  |  |  | 0 | 0.05729
7 | COC(=O)c1ccccc1 [methyl benzoate] |  |  |  | 13.4 |  |  |  |  |  |  | 
8 | CCCCCOC(C)=O [pentyl acetate] |  |  |  | 7.95 |  | 6.1 |  |  |  |  | 
9 | OCCc1ccccc1 [phenethyl alcohol] |  |  |  |  |  | 9.32 |  |  |  |  | 
10 | CCCCCCCCCCCCCC [tetradecane] |  |  |  | 6.86 | 5.2 |  |  |  |  |  | 
